Experimental data: paper PMC4296562 (Analytical biochemistry, 2014)

What was measured:
MraY-MurG = conditions: no reference given; cited from earlier work
MurX [1] = target: T1, MurX (Mycobacterium tuberculosis, UniProt P9WMW7); format: biochemical; conditions: for MurX inhibition (%) 0.1 μM: inhibitor 0.1 μM; for MurX inhibition (%) 0.1 μM / MurX inhibition (%) 1 μM / MurX inhibition (%) 10 μM / MurX inhibition (%) 100 μM: 2 75 μM, neryl phosphate 6, P-60, 26 °C, 3h; for MurX inhibition (%) 1 μM: inhibitor 1 μM; for MurX inhibition (%) 10 μM: inhibitor 10 μM; for MurX inhibition (%) 100 μM: inhibitor 100 μM; for IC50: neryl phosphate assay, obtained three times, ± standard error of the mean
Water-solubility = format: physicochemical
MurX [2] = target: T1, MurX

T1 sequence (P9WMW7 whole entry): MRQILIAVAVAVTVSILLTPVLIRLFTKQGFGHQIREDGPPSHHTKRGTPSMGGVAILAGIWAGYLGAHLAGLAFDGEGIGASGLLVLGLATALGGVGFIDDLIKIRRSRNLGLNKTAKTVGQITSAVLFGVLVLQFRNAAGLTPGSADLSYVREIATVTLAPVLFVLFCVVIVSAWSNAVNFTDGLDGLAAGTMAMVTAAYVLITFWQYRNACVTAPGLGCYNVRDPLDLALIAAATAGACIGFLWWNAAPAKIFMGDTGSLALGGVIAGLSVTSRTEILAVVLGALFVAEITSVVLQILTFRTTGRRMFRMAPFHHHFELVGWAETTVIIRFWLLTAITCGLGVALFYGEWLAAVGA

Molecule | MurX inhibition (%) 0.1 μM (MurX [1]) | MurX inhibition (%) 1 μM (MurX [1]) | MurX inhibition (%) 10 μM (MurX [1]) | MurX inhibition (%) 100 μM (MurX [1]) | also measured
CN[C@H](CC(C)C)C(=O)N[C@H]1C(=O)N[C@@H](CC(N)=O)C(=O)N[C@H]2C(=O)N[C@H]3C(=O)N[C@H](C(=O)N[C@H](C(=O)O)c4cc(O)cc(O)c4-c4cc3ccc4O)[C@H](O)c3ccc(c(Cl)c3)Oc3cc2cc(c3O[C@@H]2O[C@H](CO)[C@@H](O)[C@H](O)[C@H]2O[C@H]2C[C@](C)(N)[C@H](O)[C@H](C)O2)Oc2ccc(cc2Cl)[C@H]1O [Vancomycin] | 0% | 0% | 0% | 0% | activity in MraY-MurG coupled assays (MraY-MurG): good activity; MurX inhibitory activity (MurX [1]; even at 100 μM concentrations): did not inhibit MurX
neryl-lipid I-N^ε-dansylthiourea [compound 5] |  |  |  |  | water-solubility (Water-solubility): > 50 µg/mL
CO[C@H]1[C@@H](O)[C@H](n2ccc(=O)[nH]c2=O)O[C@@H]1[C@@H](O[C@H]1OC(C(=O)N[C@H]2CCCCNC2=O)=C[C@H](O)[C@@H]1O)C(N)=O [Capuramycin (7), Capuramycin] | 36.6% | 88.4% | 100% | 100% | 
N-glycolyl Park’s nucleotide-N^ε-dansylthiourea [compound 1] |  |  |  |  | Km (MurX [2]): 18.1 µM
Tunicamycin [Tunicamycin (9)] | 9% | 42% | 72% | 72% | IC50 (MurX [1]): 2.73 ± 0.138 µM
CC(C)=CCC/C(C)=C\COP(=O)(O)O [compound 6, neryl phosphate] |  |  |  |  | IC50 (MurX [1]): 0.152 µM
Park’s nucleotide-N^ε-dansylthiourea [compound 2] |  |  |  |  | Km (MurX [2]): 17.9 µM; Vmax for neryl-lipid I synthesis by MurX (MurX [2]): 0.00269 µM/s
